Data: paper PMC3940921 (Oncogenesis, 2014)
Read-outs that look alike come from different tables or passages of the source.

How the values were obtained:
[1] = tested on: caspase-3 activity in CML cell lines and primary samples; assay: Caspase-3 activity; format: cell-based; conditions: pulse treatment 1 h at IC50 doses
[2] = tested on: A549 lung carcinoma cell line; assay: Proliferation of A549 cells with or without IFN-γ; format: cell-based; conditions: Homo sapiens
ABI 1/2 = assay: Western blot of ABI 1/2 levels after carfilzomib; format: cell-based; conditions: carfilzomib at IC50 levels; cell lines and primary CD34+38- enriched cells
CML CD34+38- cells = assay: Viability of CML CD34+38- cells; format: cell-based, human; conditions: 50 nM for 1 h, then drug-free medium 24 h
CML CD34+ cells = assay: LTC-IC assay, CML CD34+ cells; format: cell-based, human; conditions: pulsed 1 h with 50 nM
NBM CD34+38- cells = assay: Viability of normal bone marrow CD34+38- cells; format: cell-based, human; conditions: 50 nM for 1 h, then drug-free medium 24 h
[3] = tested on: STAT5 or PI3K signaling pathways; assay: Western blot of STAT5 and PI3K signaling after carfilzomib; format: cell-based; conditions: carfilzomib at IC50 doses, 1 h pulse, fresh medium 24 h
KCL22S cells = assay: Proliferation of KCL22S cells with or without LMP7 siRNA; format: cell-based; conditions: Homo sapiens, 24 h, read-out: IC50, proliferation, control KCL22S, continuous exposure for 24 h
K562 cells = assay: Proliferation of K562 cells with or without IFN-γ; format: cell-based; conditions: Homo sapiens
normal CD34+ cells (NBM) = assay: LTC-IC assay, normal CD34+ cells; format: cell-based, human; conditions: pulsed 1 h with 50 nM
LAMA84S cells = assay: Proliferation of LAMA84S cells with or without LMP7 siRNA; format: cell-based; conditions: Homo sapiens, 24 h, read-out: IC50, proliferation, control LAMA84S, continuous exposure for 24 h
CML cell lines = assay: Cell viability of CML cell lines; format: cell-based; conditions: read-out: IC50, viability
[4] = tested on: LMP7 expression in K562 cells; assay: Induction of LMP7 expression by IFN-γ in K562 cells; format: cell-based; conditions: 100 U/ml IFN-γ for 72 h
[5] = tested on: LMP7 expression in A549 cells; assay: Induction of LMP7 expression by IFN-γ in A549 cells; format: cell-based; conditions: 100 U/ml IFN-γ for 72 h

Molecule | caspase-3 activity [1] | IC50 ([2]; A549, 24 h, read-out: IC50, proliferation) | IC50 ([2]; A549, read-out: IC50, proliferation) | increased expression of ABI 1/2 (ABI 1/2) | viability reduced by (CML CD34+38- cells) | colony formation reduced by (CML CD34+ cells) | viability reduced by (NBM CD34+38- cells) | effect on STAT5 or PI3K signaling pathways [3] | IC50 (KCL22S cells) | IC50 (K562 cells; K562, 24 h, read-out: IC50, proliferation) | IC50 (K562 cells; K562, read-out: IC50, proliferation) | colony formation reduced by (normal CD34+ cells (NBM)) | IC50 (LAMA84S cells) | IC50 (CML cell lines) | increase in the expression of LMP7 [4] | increase in the expression of LMP7 [5]
CC(C)C[C@H](NC(=O)[C@H](CCc1ccccc1)NC(=O)CN1CCOCC1)C(=O)N[C@@H](Cc1ccccc1)C(=O)N[C@@H](CC(C)C)C(=O)[C@@]1(C)CO1 [carfilzomib] | increase in caspase-3 activity | 92 nM | 10 nM | 2.2–6.8 fold | 39±1% | 58±11% | 19±2% | no effect | 5 nM | 608 nM | 179 nM | 44±7% | 7 nM | 20 to 79 nM | – | –
IFN-γ: interferon-γ, used at 100 U/ml for 72 h to induce immunoproteasome expression (protein, UniProt P01579 24-161, looked up) Interferon gamma: QDPYVKEAENLKKYFNAGHSDVADNGTLFLGILKNWKEESDRKIMQSQIVSFYFKLFKNFKDDQSIQKSVETIKEDMNVKFFNSNKKKRDDFEKLTNYSVTDLNVQRKAIHELIQVMAELSPAAKTGKRKRSQMLFRG | – | – | – | – | – | – | – | – | – | – | – | – | – | – | fourfold | 10 fold
